Tested on: striatal tissue
Test: Striatal cellular respiration (oxygen consumption of striatal fragments, phosphorescence oxygen analyzer)
Assay type: cell-based, C57BL6 male mice
Conditions: for effect on striatal cellular respiration (in words): in vitro, viable striatal tissue; for time over which the inhibitory effects remained relatively stable: with glucose, repeated additions of toxin (FIG. 3B, FIG. 4B)
Description: C57BL6 male mice (13 weeks old, about 20 g weight) were housed at 22° C. with 60% humidity and 12-h light-dark cycles. Rodent chow and filtered water were provided ad libitum. The study was approved from the UAE University Animal Research Ethics Committee (Ref. ERA-20196026). Diethyl ether was used for anesthesia.
The studied mice were not treated in any way prior to striatal tissue collection. The skin and skull were cut to expose the whole brain, which was then rapidly removed and placed in a freshly prepared Pd phosphor solution: Phosphate-buffered saline (PBS: 137 mM NaCl, 2.7 mM KCl, 4.3 mM Na2HPO4, and 1.4 mM KH2PO4, pH 7.4), 3.0 μM Pd phosphor, 0.5% fat-free albumin, with and without 5.0 mM glucose. The brain region that contained the striatum was dissected. The specimen weight was determined prior to placing it in the oxygen measuring vial that contained 2.0 mL of the Pd phosphor solution. A small portion of the specimen was stored at −80° C. for Western blot analysis.
For oxygen analysis, our previously described phosphorescence oxygen analyzer was used to monitor oxygen consumption at 25° C. in the studied striatal fragments. In reaction vials sealed from air, oxygen concentration decreased linearly with time (zero-order kinetics); the rate (k, in μM O2 min^−1) was thus the negative of d [O21/dt. The calibration reactions utilized glucose oxidase (D-glucose+O2→D-glucono-δ-lactone+H2O2) and […]. Dissolved oxygen in the solution was also depleted by the addition of glucose oxidase plus […]. Potassium cyanide (KCN, added from a stock prepared in dH2O immediately before use) inhibited respiration, confirming oxygen was consumed in cytochrome oxidase.

Row | SMILES | rate of respiration (k) in the presence of MPP+ (1.25 mM MPP+, Pd phosphor solution with 5.0 mM glucose, 25° C., n=3, p=0.048) [μM O2 min^−1 mg^−1] | effect on striatal cellular respiration (in words) | time over which the inhibitory effects remained relatively stable | rate of respiration (k) in the presence of rotenone (10 μM rotenone, Pd phosphor solution with 5.0 mM glucose, 25° C., mean±SD, n=5, without toxin 0.141 (n=7), P=0.073) [μM O2 min^−1 mg^−1]
1 | C[n+]1ccc(-c2ccccc2)cc1.[I-] [MPP+, 1-Methyl-4-phenylpyridinium iodide] | 0.077±0.006 | inhibited | about 300 min | –
2 | C=C(C)[C@H]1Cc2c(ccc3c2O[C@@H]2COc4cc(OC)c(OC)cc4[C@@H]2C3=O)O1 [rotenone, Rotenone] | – | inhibited | about 100 min | 0.092±0.022
